# From patent US10889565B2, “4-hydroxy-3-sulfonylpyridin-2(1H)-ones as APJ receptor agonists” (BRISTOL-MYERS SQUIBB COMPANY, priority 2016, dated 2021)
# Target: T1, human APJ receptor (Homo sapiens, UniProt P35414)
# T1 construct: expressed in transfected cells
# T1 sequence (P35414 1-380): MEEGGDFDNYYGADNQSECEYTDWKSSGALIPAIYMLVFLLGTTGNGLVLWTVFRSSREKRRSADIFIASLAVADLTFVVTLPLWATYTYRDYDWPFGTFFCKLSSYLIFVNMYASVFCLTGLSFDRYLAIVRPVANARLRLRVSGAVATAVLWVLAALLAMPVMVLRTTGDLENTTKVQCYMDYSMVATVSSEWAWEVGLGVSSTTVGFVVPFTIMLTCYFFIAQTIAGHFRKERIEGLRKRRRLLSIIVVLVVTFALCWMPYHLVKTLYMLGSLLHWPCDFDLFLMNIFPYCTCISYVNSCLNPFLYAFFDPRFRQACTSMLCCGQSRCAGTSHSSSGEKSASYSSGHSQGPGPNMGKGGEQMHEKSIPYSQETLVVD
# Test: Intracellular cAMP accumulation assay (APJ hcAMP, HTRF)
# Type: cell-based
# Conditions: HEK293 cells stably expressing human APJ receptor; inhibition of forskolin-mediated cAMP production; read-out: Human APJ cAMP EC50 Potency range
# Experimental: Intracellular cAMP Accumulation Assay
# HEK293 cells stably expressing human APJ receptor were used to assess the activity of compounds. Cultured cells were detached and resuspended in the cAMP Homogeneous Time-Resolved Fluorescence (HTRF) assay buffer (Cisbio cat; #62AM4PEJ). The assay was performed in 384-well assay plates (Perkin-Elmer; cat #6008289) according to assay protocol provided by the manufacturer. Serial dilutions of a compound together with assay buffer containing […] IBMX and 2 μM forskolin were added to each well containing 5,000 cells and incubated for 30 minutes at room temperature. Subsequently, cAMP D2 reagent was added in the lysis buffer followed by the EuK antibody (Cisbio; cat #62AM4PEJ) and incubated for 60 min. The fluorescence emission ratio was measured using fluorometer. The intracellular cAMP concentrations (compound-stimulated inhibition of forskolin-mediated cAMP production) were calculated by extrapolation from a standard curve using known cAMP concentrations. The EC50 values were obtained by fitting the data to a sigmoidal concentration-response curve with variable slope. The maximal achievable inhibition of forskolin-induced cAMP levels (Ymax) for each compound was expressed as relative percentage of inhibition attained using pyroglutamated apelin-13 ((Pyr1)apelin-13) peptide, which was set to 100%.
# The examples disclosed below were tested in the APJ in vitro assays described above and were found having human APJ cyclic AMP (hcAMP) activity. The EC50 value of each compound is presented at the end of the example description.
# The biological activity of the exemplified compounds of this invention determined by the assay described above is shown at the end of each example.
row,SMILES,EC50
1,"CCCCc1[nH]c(=O)c(S(=O)(=O)c2ccc(Nc3ccc(F)cc3)cc2)c(O)c1-c1c(OC)cccc1OC [Example 29, 6-butyl-5-(2,6-dimethoxyphenyl)-3-((4-((4-fluorophenyl)amino)phenyl)sulfonyl)-4-hydroxypyridin-2(1H)-one]",0.01 to 10 nM
2,"CCCCc1[nH]c(=O)c(S(=O)(=O)c2ccc(NC(=O)c3ccc(F)cc3)cc2)c(O)c1-c1c(OC)cccc1OC [Example 30, N-(4-((6-butyl-5-(2,6-dimethoxyphenyl)-4-hydroxy-2-oxo-1,2-dihydropyridin-3-yl)sulfonyl)phenyl)-4-fluorobenzamide]",0.01 to 10 nM
3,"CCCCc1[nH]c(=O)c(S(=O)(=O)c2ccc(NC(=O)Nc3ccc(F)cc3)cc2)c(O)c1-c1c(OC)cccc1OC [Example 31, 1-(4-((6-butyl-5-(2,6-dimethoxyphenyl)-4-hydroxy-2-oxo-1,2-dihydropyridin-3-yl)sulfonyl)phenyl)-3-(4-fluorophenyl)urea]",0.01 to 10 nM
4,"CCCCc1[nH]c(=O)c(S(=O)(=O)c2ccc(Br)cn2)c(O)c1-c1c(OC)cccc1OC [Example 32, 3-((5-bromopyridin-2-yl)sulfonyl)-6-butyl-5-(2,6-dimethoxyphenyl)-4-hydroxypyridin-2(1H)-one]",0.01 to 10 nM
5,"CCCCc1[nH]c(=O)c(S(=O)(=O)c2ccc(-c3ccnc(F)c3C)cn2)c(O)c1-c1c(OC)cccc1OC [Example 33, 6-butyl-5-(2,6-dimethoxy-phenyl)-3-((2′-fluoro-3′-methyl-[3,4′-bipyridin]-6-yl)sulfonyl)-4-hydroxy-pyridin-2(1H)-one]",0.01 to 10 nM
6,"CCCCc1[nH]c(=O)c(S(=O)(=O)c2ccc(-c3ccncc3C)cn2)c(O)c1-c1c(OC)cccc1OC [Example 34, 6-butyl-5-(2,6-dimethoxy-phenyl)-4-hydroxy-3-((3′-methyl-[3,4′-bipyridin]-6-yl)sulfonyl) pyridin-2(1H)-one]",0.01 to 10 nM
7,"CCCCc1[nH]c(=O)c(S(=O)(=O)c2ccc(-c3ccc(OC(F)(F)F)cc3)cn2)c(O)c1-c1c(OC)cccc1OC [Example 35, 6-butyl-5-(2,6-dimethoxy-phenyl)-4-hydroxy-3-((5-(4-(trifluoro-methoxy)phenyl)pyridin-2-yl)sulfonyl) pyridin-2(1H)-one]",0.01 to 10 nM
8,"CCCCc1[nH]c(=O)c(S(=O)(=O)c2ccc(-c3ccc(F)cc3C)cn2)c(O)c1-c1c(OC)cccc1OC [Example 36, 6-butyl-5-(2,6-dimethoxy-phenyl)-3-((5-(4-fluoro-2-methylphenyl)pyridin-2-yl)sulfonyl)-4-hydroxy-pyridin-2(1H)-one]",0.01 to 10 nM
9,"CCCCc1[nH]c(=O)c(S(=O)(=O)c2ccc(-c3ccccc3C)cn2)c(O)c1-c1c(OC)cccc1OC [Example 37, 6-butyl-5-(2,6-dimethoxy-phenyl)-4-hydroxy-3-((5-(o-tolyl)pyridin-2-yl)sulfonyl) pyridin-2(1H)-one]",0.01 to 10 nM
10,"CCCCc1[nH]c(=O)c(S(=O)(=O)c2ccc(-c3cccc(F)c3C)cn2)c(O)c1-c1c(OC)cccc1OC [Example 38, 6-butyl-5-(2,6-dimethoxy-phenyl)-3-((5-(3-fluoro-2-methylphenyl)pyridin-2-yl)sulfonyl)-4-hydroxy-pyridin-2(1H)-one]",0.01 to 10 nM
11,"CCCCc1[nH]c(=O)c(S(=O)(=O)c2ccc(C)cn2)c(O)c1-c1c(OC)cccc1OC [Example 39, 6-butyl-5-(2,6-dimethoxy-phenyl)-4-hydroxy-3-((5-methyl-pyridin-2-yl)sulfonyl) pyridin-2(1H)-one]",0.01 to 10 nM
12,"CCCCc1[nH]c(=O)c(S(=O)(=O)c2ccc(-c3ccnc(N4CCOCC4)c3F)cn2)c(O)c1-c1c(OC)cccc1OC [Example 40, 6-butyl-5-(2,6-dimethoxy-phenyl)-3-((3′-fluoro-2′-morpholino-[3,4′-bipyridin]-6-yl)sulfonyl)-4-hydroxypyridin-2(1H)-one]",0.01 to 10 nM
13,"CCCCc1[nH]c(=O)c(S(=O)(=O)c2ccc(-c3ccc(F)nc3C)cn2)c(O)c1-c1c(OC)cccc1OC [Example 41, 6-butyl-5-(2,6-dimethoxy-phenyl)-3-((6′-fluoro-2′-methyl-[3,3′-bipyridin]-6-yl)sulfonyl)-4-hydroxypyridin-2(1H)-one]",0.01 to 10 nM
14,"CCCCc1[nH]c(=O)c(S(=O)(=O)c2ccc(-c3ccc(F)nc3)cn2)c(O)c1-c1c(OC)cccc1OC [Example 42, 6-butyl-5-(2,6-dimethoxy-phenyl)-3-((6′-fluoro-[3,3′-bipyridin]-6-yl)sulfonyl)-4-hydroxypyridin-2(1H)-one]",0.01 to 10 nM
15,"CCCCc1[nH]c(=O)c(S(=O)(=O)c2ccc(-c3ccc(F)cc3)cn2)c(O)c1-c1c(OC)cccc1OC [Example 43, 6-butyl-5-(2,6-dimethoxy-phenyl)-3-((5-(4-fluorophenyl)pyridin-2-yl)sulfonyl)-4-hydroxypyridin-2(1H)-one]",0.01 to 10 nM
16,"CCCCc1[nH]c(=O)c(S(=O)(=O)c2ccc(-c3ccnc(OC)c3)cn2)c(O)c1-c1c(OC)cccc1OC [Example 44, 6-butyl-5-(2,6-dimethoxy-phenyl)-4-hydroxy-3-((2′-methoxy-[3,4′-bipyridin]-6-yl)sulfonyl) pyridin-2(1H)-one]",0.01 to 10 nM
17,"CCCCc1[nH]c(=O)c(S(=O)(=O)c2ccc(-c3ccc(C(=O)NC4CC4)cc3)cn2)c(O)c1-c1c(OC)cccc1OC [Example 45, 4-(6-((6-butyl-5-(2,6-dimethoxy-phenyl)-4-hydroxy-2-oxo-1,2-dihydro-pyridin-3-yl)sulfonyl)pyridin-3-yl)-N-cyclopropyl-benzamide]",0.01 to 10 nM
18,"CCCCc1[nH]c(=O)c(S(=O)(=O)c2ccccn2)c(O)c1-c1c(OC)cccc1OC [Example 46, 6-butyl-5-(2,6-dimethoxy-phenyl)-4-hydroxy-3-(pyridin-2-ylsulfonyl) pyridin-2(1H)-one]",0.01 to 10 nM
19,"CCCCc1[nH]c(=O)c(S(=O)(=O)c2ccc(-c3ccnc4[nH]ccc34)cn2)c(O)c1-c1c(OC)cccc1OC [Example 47, 3-((5-(1H-pyrrolo[2,3-b]pyridin-4-yl)pyridin-2-yl)sulfonyl)-6-butyl-5-(2,6-dimethoxy-phenyl)-4-hydroxy-pyridin-2(1H)-one]",0.01 to 10 nM
20,"CCCCc1[nH]c(=O)c(S(=O)(=O)c2nnc[nH]2)c(O)c1-c1c(OC)cccc1OC [Example 48, 3-((4H-1,2,4-triazol-3-yl)sulfonyl)-6-butyl-5-(2,6-dimethoxy-phenyl)-4-hydroxy-pyridin-2(1H)-one]",10 to 100 nM
21,"C=C(C)c1ccc(S(=O)(=O)c2c(O)c(-c3c(OC)cccc3OC)c(CCCC)[nH]c2=O)nc1 [Example 49, 6-Butyl-5-(2,6-dimethoxyphenyl)-4-hydroxy-3-((5-(prop-1-en-2-yl)pyridin-2-yl)sulfonyl)pyridin-2(1H)-one]",0.01 to 10 nM
22,"CCCCc1[nH]c(=O)c(S(=O)(=O)c2ccc(C(C)C)cn2)c(O)c1-c1c(OC)cccc1OC [Example 50, 6-Butyl-5-(2,6-dimethoxyphenyl)-4-hydroxy-3-((5-isopropylpyridin-2-yl)sulfonyl)pyridin-2(1H)-one]",0.01 to 10 nM
23,"CCCCc1[nH]c(=O)c(S(=O)(=O)c2ccc(C3CC3)cn2)c(O)c1-c1c(OC)cccc1OC [Example 51, 6-Butyl-3-((5-cyclopropylpyridin-2-yl)sulfonyl)-5-(2,6-dimethoxyphenyl)-4-hydroxypyridin-2(1H)-one]",0.01 to 10 nM
